Each structure is given as a SMILES string.

The record followed here is patent US20080267942A1, “BENZAZEPIN-2(1H)-ONE DERIVATIVES” (Pfizer Limited, priority 2006, published 2008).

The target of experiment [1] is T1, bovine beta-2 adrenoceptor (Bos taurus, UniProt Q28044).
T1 construct: expressed in transfected cells; host or cells: CHO cells
Nature of the experiment: cAMP assay in CHO cells transfected with the bovine beta-2 adrenoceptor (DiscoveRx Hit Hunter cAMP II). Type of experiment: cell-based. The settings on record: CHO cells transfected with bovine beta-2 adrenoceptor, 30 minutes incubation with compound. Here is the method: (§1) CHO cells transfected with the bovine or porcine beta-2 adrenceptors were maintained in culture in DMEM/HAMS F12+10% FBS+2 mM glutamine+500 μg/ml geneticin (for the porcine receptor the medium was supplement with 1.5 mM HEPES) at 37° C. with a 5% CO2 atmosphere.
(§2) Cells were plated into 96 well viewplates in medium and incubated overnight at 37° C. with a 5% CO2 atmosphere. The cells were pre-incubated with 0.5 mM IBMX in PBS for 30 minutes prior to incubation with increasing concentrations of experimental compound (5×10^−12 to 10^−5M) for 30 minutes at 37° C. with a 5% CO2 atmosphere. At the end of the incubation time the compound was removed and the cells assayed for cAMP using the DiscoveRx Hit Hunter cAMP II™ assay kit.
(§3) Duplicate samples were run for each experimental compound and the data generated was analysed using EC50 analysis software in Graphpad Prism.

The target in experiment [2] is T2, porcine beta-2 adrenoceptor (Sus scrofa, UniProt Q28997).
T2 construct: expressed in transfected cells; host or cells: CHO cells
T2 sequence (Q28997 whole entry): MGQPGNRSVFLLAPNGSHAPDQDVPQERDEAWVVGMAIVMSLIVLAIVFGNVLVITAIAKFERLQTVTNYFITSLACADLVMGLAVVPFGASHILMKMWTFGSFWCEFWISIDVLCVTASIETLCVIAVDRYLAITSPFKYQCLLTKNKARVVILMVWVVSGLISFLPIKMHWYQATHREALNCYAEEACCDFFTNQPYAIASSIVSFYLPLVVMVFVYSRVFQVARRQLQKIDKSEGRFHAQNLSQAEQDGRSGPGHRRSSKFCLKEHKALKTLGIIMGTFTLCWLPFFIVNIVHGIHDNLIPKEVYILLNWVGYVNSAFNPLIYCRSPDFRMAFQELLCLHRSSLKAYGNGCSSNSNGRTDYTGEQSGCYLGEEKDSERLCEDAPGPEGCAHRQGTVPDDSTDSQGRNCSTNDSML
Nature of the experiment: cAMP assay in CHO cells transfected with the porcine beta-2 adrenoceptor (DiscoveRx Hit Hunter cAMP II). Format: cell-based. Particulars: CHO cells transfected with porcine beta-2 adrenoceptor, 30 minutes incubation with compound. Here is the method:
as §1, §2, §3
For orientation: cAMP levels reflect the balance of adenylyl cyclase and phosphodiesterase activity.

T1 sequence (Q28044 whole entry): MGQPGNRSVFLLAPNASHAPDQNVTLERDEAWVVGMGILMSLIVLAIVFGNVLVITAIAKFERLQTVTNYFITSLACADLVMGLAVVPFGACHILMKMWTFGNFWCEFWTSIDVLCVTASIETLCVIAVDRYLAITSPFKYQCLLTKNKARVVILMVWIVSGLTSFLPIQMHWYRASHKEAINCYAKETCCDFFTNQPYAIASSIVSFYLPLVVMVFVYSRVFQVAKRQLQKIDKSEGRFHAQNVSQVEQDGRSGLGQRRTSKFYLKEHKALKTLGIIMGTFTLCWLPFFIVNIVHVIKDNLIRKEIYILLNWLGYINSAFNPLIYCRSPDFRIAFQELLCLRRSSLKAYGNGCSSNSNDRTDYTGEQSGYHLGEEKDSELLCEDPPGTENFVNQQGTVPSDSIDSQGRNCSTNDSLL

The EC50 is the midpoint of the concentration-response curve. As to `CC(CCc1ccncc1)N[C@@H]1CCn2c(=O)[nH]c3cccc(c32)[C@H]1O` (mixture of isomers) [Example 27, 7-Hydroxy-6-[(1-methyl-3-pyridin-4-ylpropyl)amino]-4,5,6,7-tetrahydroimidazo[4,5,1-jk][1]benzazepin-2(1H)-one], the EC50 in experiment [1] worked out at 77 nM; in experiment [2] it was 53 nM.

Regarding `Cc1ncc(CCC(C)N[C@@H]2CCn3c(=O)[nH]c4cccc(c43)[C@H]2O)s1` (mixture of isomers) [Example 28a, 7-Hydroxy-6-{[1-methyl-3-(2-methyl-1,3-thiazol-5-yl)propyl]amino}-4,5,6,7-tetrahydroimidazo[4,5,1-jk][1]benzazepin-2(1H)-one], the EC50 in experiment [1] was 129 nM; in experiment [2], 104 nM.

In the case of `CC(CCc1c[nH]c2ccc(C#N)cc12)N[C@@H]1CCn2c(=O)[nH]c3cccc(c32)[C@H]1O` (mixture of isomers) [Example 29, 3-(3-{[7-Hydroxy-2-oxo-1,2,4,5,6,7-hexahydroimidazo[4,5,1-jk][1]benzazepin-6-yl]amino}butyl)-1H-indole-5-carbonitrile], the EC50 in experiment [1] is 83 nM; in experiment [2], 127 nM.

On to `CC(CCn1ccnc1)N[C@@H]1CCn2c(=O)[nH]c3cccc(c32)[C@H]1O` (mixture of isomers) [Example 30, 7-Hydroxy-6-{[3-(1H-imidazol-1-yl)-1-methylpropyl]amino}-4,5,6,7-tetrahydroimidazo[4,5,1-jk][1]benzazepin-2(1H)-one], for which the EC50 in experiment [1] is 48 nM; in experiment [2], 3.8 nM.

Turning to `CC(CCc1c[nH]c2ccncc12)N[C@@H]1CCn2c(=O)[nH]c3cccc(c32)[C@H]1O` (mixture of isomers) [Example 31c, 7-Hydroxy-6-{[1-methyl-3-(1H-pyrrolo[3,2-c]pyridin-3-yl)-propyl]amino}-4,5,6,7-tetrahydroimidazo[4,5,1-jk][1]benzazepin-2(1H)-one], the EC50 was found to be 366 nM in experiment [1] and 19 nM in experiment [2].

Take `CC(CCc1c[nH]c2cnccc12)N[C@@H]1CCn2c(=O)[nH]c3cccc(c32)[C@H]1O` (mixture of isomers) [Example 32c, 7-Hydroxy-6-{[1-methyl-3-(1H-pyrrolo[2,3-c]pyridin-3-yl)propyl]amino}-4,5,6,7-tetrahydroimidazo[4,5,1-jk][1]benzazepin-2(1H)-one]: the EC50 came to 18 nM in experiment [1] and 8.7 nM in experiment [2].

Take `Cc1ccc2[nH]cc(CCC(C)N[C@@H]3CCn4c(=O)[nH]c5cccc(c54)[C@H]3O)c2c1` (mixture of isomers) [Example 33, 7-Hydroxy-6-{[1-methyl-3-(5-methyl-1H-indol-3-yl)propyl]amino}-4,5,6,7-tetrahydroimidazo[4,5,1-jk][1]benzazepin-2(1H)-one]: the EC50 in experiment [1] is 74 nM; in experiment [2], 24 nM.

In the case of `Cc1ncsc1CCC(C)N[C@@H]1CCn2c(=O)[nH]c3cccc(c32)[C@H]1O` (mixture of isomers) [Example 34a, 7-Hydroxy-6-{[1-methyl-3-(4-methyl-1,3-thiazol-5-yl)propyl]amino}-4,5,6,7-tetrahydroimidazo[4,5,1-jk][1]benzazepin-2(1H)-one], the results for the EC50 in experiment [1] and in experiment [2] were 23 nM and 45 nM, respectively.

For the compound `CC(CCc1cc(Cl)cc2cc[nH]c12)N[C@@H]1CCn2c(=O)[nH]c3cccc(c32)[C@H]1O` (mixture of isomers) [Example 35, 6-{[3-(5-Chloro-1H-indol-7-yl)-1-methylpropyl]amino}-7-hydroxy-4,5,6,7-tetrahydroimidazo[4,5,1-jk][1]benzazepin-2(1H)-one], the EC50 in experiment [1] turned out to be 0.8 nM; in experiment [2], 2 nM.

Consider `CC(CCc1cccc2cc[nH]c12)N[C@@H]1CCn2c(=O)[nH]c3cccc(c32)[C@H]1O` (mixture of isomers) [Example 38d, 7-Hydroxy-6-{[3-(1H-indol-7-yl)-1-methylpropyl]amino}-4,5,6,7-tetrahydroimidazo[4,5,1-jk][1]benzazepin-2(1H)-one], for which the EC50 in experiment [1] amounted to 0.6 nM; in experiment [2], 1.1 nM.
